Test results taken from paper PMC9658586, “1,4-Naphthoquinone Motif in the Synthesis of New Thiopyrano[2,3-d]thiazoles as Potential Biologically Active Compounds” (Molecules, 2022).
Where two headings read alike, the source gives them in different places.

Assays:
[1] = system: panel of sixty cancer cell lines; experiment: NCI single-dose (10 μM) anticancer screen, sulforhodamine B, 60-cell-line panel; type: cell-based, human; conditions: 48 h; for Mean Growth, %: growth percent vs untreated control, 60 cell lines; for Range of Growth, %: range over 60 cell lines
Experimental: Considering the results of previous studies of fused thiazolidinones and their analogs, a series of thiopyrano[2,3-d]thiazoles with naphthoquinone fragments in the structure were studied for their anticancer activity. Thus, synthesized thiopyranothiazole derivatives 3.5 and 3.6 were selected by the National Cancer Institute (NCI), U.S., for their anticancer activity at 10 μM concentration toward a panel of sixty cancer cell lines representing nine different types (leukemia, melanoma, lung, colon, CNS, ovarian, renal, prostate, and breast cancers) (Figures S13–S14). Selection for screening based on new derivatives’ ability to add diversity to the NCI small molecules collection and anticancer assays were performed according to the NCI guidelines and protocols previously described. The compounds were added at the mentioned concentration, and the cell cultures were incubated for 48 h. The results for each compound were reported as the growth percent (GP%) of treated cells compared with untreated control cells.
Anticancer in vitro assay was performed on the human tumor cell lines panel derived from nine neoplastic diseases by the protocol of the Drug Evaluation Branch, National Cancer Institute, Bethesda, MD, USA [44, 45, 46]. Tested compounds were added to the culture at a single concentration (10^−5 M), and the cultures were incubated for 48 h. Endpoint determinations were made with a protein binding dye, sulforhodamine B. Results for each tested compound were reported as the GP% of the treated cells compared to untreated control cells. GP% was spectrophotometrically evaluated vs. controls not treated with test agents.

[2] = system: isolated normal human peripheral blood lymphocytes; experiment: MTT cell viability assay, isolated lymphocytes; type: cell-based; conditions: MTT, 72 h, normal human peripheral blood lymphocytes, read-out: IC50, Isolated lymphocytes
Experimental: We continued the cytotoxicity study of synthesized derivatives 3.1–3.6 toward tumor and pseudo-normal cells in vitro. The MTT cell viability assay was performed 72 h after cells treatment with various concentrations of studied compounds and doxorubicin, a reference drug. […] The THP-1 cells, monocytes isolated from peripheral blood from an acute monocytic leukemia patient, were also sensitive to the 3.6 treatment. […] The 3.6 inhibited the viability of epidermoid carcinoma (KB3-1 and its ABCB1-overexpressing subline KBC-1) and colon carcinoma (HCT116wt and its p53 knockdown subline HCT116 p53-/-) cells. It is known that ABCB1 (P-glycoprotein), MRP1/ABCC1 (multidrug resistance protein 1), and BCRP/BCG2 (breast cancer resistance protein) have been reported to be key players in resistance to chemotherapy. […] Thus, the p53 status of colon carcinoma cells influenced the anti-tumor effects of the studied 3,5,10,11-tetrahydro-2H-benzo[6,7]thiochromeno[2,3-d][1, 3]thiazole-2,5,10-trione. The p53 has diverse mutations in almost all human tumors, stimulating their hyper-proliferation, invasion/metastasis, and thus, influencing the potency of various chemotherapeutics (i.e., platins and anti-metabolites). […] Based on our findings, one can assume a p53-dependent mode of action for 3.6 toward colon cancer cells.
(§1) MTT assay was used to examine the viability of tumor and pseudo-normal cells after their treatment with studied thiopyrano[2,3-d]thiazole derivatives and doxorubicin (Actavis S.R.L., Bucharest, Romania). Cells were seeded in 96-well plates at a density of 3–5 × 103. After 24 h, cells were treated with compound […], 1,4-NQ (0.1–100 µM), and doxorubicin (0.1–100 µM). After incubation for 72 h, MTT reagent (Sigma-Aldrich, St. Louis, MO, USA) was added to each well, according to the Sigma-Aldrich protocol. An absorbance Reader BioTek ELx800 (BioTek Instruments, Inc., Winooski, VT, USA) was used to measure the reaction product.
The study protocol with human lymphocytes isolated from healthy adult peripheral blood was approved by BioEthics Committee of the Institute of Cell Biology of National Academy of Sciences of Ukraine (protocol No 2 from 27 January 2019), and with written consent of donor.

[3] = system: Murine macrophages of J774.2 line; experiment: MTT cell viability assay, J774.2; type: cell-based; conditions: pseudo-normal murine macrophages
Experimental: (§2) The MTT cell viability assay was performed 72 h after cells treatment with various concentrations of studied compounds and doxorubicin, a reference drug. […] It is known that ABCB1 (P-glycoprotein), MRP1/ABCC1 (multidrug resistance protein 1), and BCRP/BCG2 (breast cancer resistance protein) have been reported to be key players in resistance to chemotherapy. […] The p53 has diverse mutations in almost all human tumors, stimulating their hyper-proliferation, invasion/metastasis, and thus, influencing the potency of various chemotherapeutics (i.e., platins and anti-metabolites).
(§3) Human colon carcinoma HCT116 cells, human breast adenocarcinoma cells of MCF-7 line, human T-leukemia Jurkat cells, human chronic myelogenous leukemia K562 cells, and human keratinocytes of HaCaT line were from the Cell Collection of R.E. Kavetsky Institute of Experimental Pathology, Oncology and Radiobiology (Kyiv, Ukraine). Murine macrophages of J774.2 line were a generous gift from Professor Sir John Vane (William Harvey Research Institute, London, UK) via Professor Janusz Marcinkiewicz (Jagiellonian University Medical College, Krakow, Poland). Human colon carcinoma HCT116 p53-/- cells with knockdown of P53 gene, as well as human epidermoid cervix carcinoma KB3-1 cells and its ABCB1-overexpressing subline KBC-1, were kindly provided by Professor W. Berger (Institute of Cancer Research, Medical University of Vienna, Austria). […] Human leukemia monocytic THP-1 cells were kindly provided by Professor M. Herrmann (Department of Internal Medicine, Institute for Clinical Immunology and Rheumatology, University of Erlangen-Nuremberg, Germany). Cells were cultured in DMEM or RPMI-1640 medium supplemented with 10% fetal bovine serum (all were purchased from Biowest, Nuaille, France) at 37 °C in a humidified atmosphere containing 5% CO2.
as §1

[4] = system: Human colon carcinoma HCT116 p53-/- cells; experiment: MTT cell viability assay, HCT116 p53-/-; type: cell-based; conditions: for IC50: Homo sapiens, read-out: IC50, HCT116 p53-/-
Experimental: as §2, §3, §1

[5] = system: human epidermoid cervix carcinoma KB3-1 cells; experiment: MTT cell viability assay, KB3-1; type: cell-based; conditions: Homo sapiens, KB 3-1, 72 h
Experimental: as §2, §3, §1

KB3-1 cells = experiment: Fluorescence microscopy of cells, Hoechst-33342 staining; type: cell-based, human; conditions: 1 µM, 24 h
Experimental: One can also see giant KB3-1 cells with abnormal nuclei and looser chromatin (Figure 7B). The mitotic catastrophe may occur during or after aberrant mitosis. Mitotic catastrophe has been reported as a special example of apoptosis affecting mitochondrial membrane permeabilization and caspase activation. […] Thus, compound 3.6 induced pro-apoptotic cytomorphological changes in treated KB3-1 cells.
The KB3-1 cells were seeded in 24-well plates at 5 × 10^5/mL and then treated for an additional 24 h with compound […] (1 μM) and doxorubicin (1 μM). Cells were stained with 0.2–0.5 µg/mL of Hoechst-33342 and incubated for 20–30 min before the cell examination. A Zeiss fluorescent microscope (Carl Zeiss, Jena, Germany), AxioImager A1 camera (at 400× magnification), and AxioVision image analysis software Release 4.6.3.0 for Carl Zeis microscopy (Imaging Associates Ltd., Cork, Ireland, UK) were used for cells examination. All microphotographs were additionally analyzed using ImagePro7 software (Media Cybernetics, Rockville, MD, USA).

| SMILES | Mean Growth, % [1] [%] | Range of Growth, % [1] [%] | IC50 ([2]; Lymphocyte) [µM] | IC50 ([3]; Mus musculus, J774.2, 72 h) [µM] | cytotoxic action on p53-deficient colon carcinoma cells relative to HCT116wt ([4]; HCT116 p53-/- vs HCT116wt) | IC50 ([4]; HCT-116, MTT, 72 h) [µM] | IC50 [5] [µM] | cytomorphological alterations (KB3-1 cells) | IC50 ([2]; Homo sapiens, Lymphocyte) [µM] | IC50 ([2]; listed as Dox) [µM] | IC50 ([3]; 72 h, listed as Dox) [µM] | IC50 ([4]; HCT-116, 72 h) [µM] |
| --- | --- | --- | --- | --- | --- | --- | --- | --- | --- | --- | --- | --- |
| O=C1C2=C(C(=O)c3ccccc31)C(CCc1ccccc1)c1sc(=O)[nH]c1S2 (centres unmarked) [Compound 3.6, 11-Phenethyl-3,11-dihydro-2H-benzo[6,7]thiochromeno[2,3-d]thiazole-2,5,10-trione] | 90.58 | 45.25 to 130.11 | 58.7 | 9.57 | two times weaker | 12.3 | 27.7 | shrunk, with condensed chromatin and membrane blabbing | – | – | – | – |
| COc1cccc2c1C(=O)c1c(O)c3c(c(O)c1C2=O)C[C@@](O)(C(=O)CO)C[C@@H]3O[C@H]1C[C@H](N)[C@H](O)[C@H](C)O1 [Doxorubicin, doxorubicin, reference compound] | −20.30 | −86.40 to 72.90 | – | 0.8 to 1 | – | – | 0.73 | chromatin condensation and membrane blabbing | 0.8 to 1 | 1 | 0.97 | 0.58 |
